{"source": "patent US6740677B2", "about": "“Methods of treating benzodiazepine site (BZD-S) associated syndromes using 2′ hydroxyflavonoids” (priority 2002, dated 2004)", "key": {"[1]": {"molecular_target": "benzodiazepine binding site", "assay": "Inhibition of [3H]-flunitrazepam by 2′ flavonoid derivatives (Example 7)"}, "mice [2]": {"tested_on": "mice", "assay": "Hole-board test", "assay_type": "in vivo, Male ICR mice", "design": "Time spent head-dipping: unit not given here"}, "mice [3]": {"tested_on": "mice", "assay": "Elevated plus-maze test", "assay_type": "in vivo, Male ICR mice"}, "benzodiazepine site [4]": {"tested_on": "benzodiazepine site", "settings": "10^-4 M GABA, rat cerebral cortex membranes; cited from earlier work"}, "mice [5]": {"tested_on": "mice", "assay": "Horizontal wire test", "assay_type": "in vivo, Male ICR mice"}, "benzodiazepine site [6]": {"tested_on": "benzodiazepine site", "settings": "10^-5 M muscimol, rat cerebellar membranes; cited from earlier work"}, "[7]": {"tested_on": "benzodiazepine site on GABAA receptor", "assay": "GABA shift experiment, [3H]-Ro15-1788 competition with/without 10 μM GABA", "assay_type": "binding, rat"}, "BZD-S": {"molecular_target": "BZD-S", "assay": "Radio-receptor binding assay, [3H]flunitrazepam, forebrain crude synaptosomal fraction (Example 3)", "design": "species or system Sprague-Dawley rats", "settings": "1 nM [3H]flunitrazepam, rat forebrain; read-out: Inhibition of 3H-Flunitrazepam Ki"}, "[8]": {"tested_on": "benzodiazepine site (BZD-S) of the GABAA receptor", "assay": "Radioligand receptor binding, displacement of [3H]-flunitrazepam (Example 1)"}, "[9]": {"molecular_target": "benzodiazepine site (BZD-S) of the GABAA receptor"}, "[10]": {"settings": "1 mg/kg oral, time cell empty (1 hour), 5-min test"}, "[11]": {"settings": "5 mg/kg oral, time cell empty (1 hour), 5-min test"}, "[12]": {"settings": "1 mg/kg oral, time cell empty, 5-min test"}, "[13]": {"settings": "5 mg/kg oral, time cell empty, 5-min test"}}}
{"smiles": "COc1ccc2oc(-c3ccccc3N)cc(=O)c2c1", "note": "[2′-amino, 6-methoxyflavone]", "values": [{"measurement": "IC50", "setting": "[1]", "result": 2000, "unit": "nM"}]}
{"smiles": "CN1C(=O)CN=C(c2ccccc2)c2cc(Cl)ccc21", "note": "[Diazepam, reference compound]", "values": [{"measurement": "Number of head dips", "setting": "mice [2]; [10]", "result": "19.12 ± 2.92"}, {"measurement": "Number of rearings", "setting": "mice [2]; [10]", "result": "25.13 ± 2.85"}, {"measurement": "Time spent head-dipping", "setting": "mice [2]; [10]", "result": "22.75 ± 2.59"}, {"measurement": "Number of head dips", "setting": "mice [2]; [11]", "result": "17.25 ± 1.89"}, {"measurement": "Number of rearings", "setting": "mice [2]; [11]", "result": "32.16 ± 3.15"}, {"measurement": "Time spent head-dipping", "setting": "mice [2]; [11]", "result": "19.50 ± 2.33"}, {"measurement": "sedative effects (decrease in head-dips, time head-dipping, rearings)", "setting": "mice [2]; at the dosage regimen", "result": "lack of sedative effects"}, {"measurement": "% of entries into open arms", "setting": "mice [3]; [12]", "result": "26.48 ± 2.83", "unit": "%"}, {"measurement": "% of time spent in open arms", "setting": "mice [3]; [12]", "result": "28.71 ± 2.27", "unit": "%"}, {"measurement": "% of entries into open arms", "setting": "mice [3]; [13]", "result": "29.85 ± 1.29", "unit": "%"}, {"measurement": "% of time spent in open arms", "setting": "mice [3]; [13]", "result": "32.24 ± 1.56", "unit": "%"}, {"measurement": "time spent in open arms and entries made into open arms vs control", "setting": "mice [3]; 1.0 and 5.0 mg/kg", "result": "dose dependent increase"}, {"measurement": "GABA ratio (IC50 ratio without GABA/with GABA), column A", "setting": "benzodiazepine site [4]", "result": 2.9}, {"measurement": "ability to grasp the wire compared to control", "setting": "mice [5]; 5.0 mg/kg", "result": "significant impairment"}, {"measurement": "GABA ratio (IC50 ratio without GABA/with GABA), column B", "setting": "benzodiazepine site [6]", "result": 2.3}, {"measurement": "GABA ratio (IC50 ratio without GABA/with GABA), column C", "setting": "[7]; 10^-5 M GABA, rat cerebral cortex membranes", "result": 2.0}, {"measurement": "Ki", "setting": "BZD-S", "result": 9.5, "unit": "nM"}]}
{"smiles": "COc1c(O)c(OC)c2oc(-c3ccccc3O)cc(=O)c2c1O", "note": "[Compound 1, 5,7,2′-trihydroxy-6,8-dimethoxyflavone]", "values": [{"measurement": "Number of head dips", "setting": "mice [2]; 1 mg/kg oral, 20 min", "result": "13.56 ± 1.81"}, {"measurement": "Number of rearings", "setting": "mice [2]; 1 mg/kg oral, 20 min", "result": "24.19 ± 3.53"}, {"measurement": "Time spent head-dipping", "setting": "mice [2]; 1 mg/kg oral, 20 min", "result": "15.38 ± 1.59"}, {"measurement": "Number of head dips", "setting": "mice [2]; 1 mg/kg oral, 60 min", "result": "15.75 ± 2.53"}, {"measurement": "Number of rearings", "setting": "mice [2]; 1 mg/kg oral, 60 min", "result": "23.94 ± 2.34"}, {"measurement": "Time spent head-dipping", "setting": "mice [2]; 1 mg/kg oral, 60 min", "result": "16.75 ± 3.78"}, {"measurement": "Number of head dips", "setting": "mice [2]; 2 mg/kg oral, 20 min", "result": "13.13 ± 1.96"}, {"measurement": "Number of rearings", "setting": "mice [2]; 2 mg/kg oral, 20 min", "result": "22.06 ± 3.17"}, {"measurement": "Time spent head-dipping", "setting": "mice [2]; 2 mg/kg oral, 20 min", "result": "14.56 ± 2.04"}, {"measurement": "Number of head dips", "setting": "mice [2]; 2 mg/kg oral, 60 min", "result": "14.50 ± 2.73"}, {"measurement": "Number of rearings", "setting": "mice [2]; 2 mg/kg oral, 60 min", "result": "22.13 ± 2.46"}, {"measurement": "Time spent head-dipping", "setting": "mice [2]; 2 mg/kg oral, 60 min", "result": "15.13 ± 2.20"}, {"measurement": "number of head-dips, time spent head-dipping and number of rearings", "setting": "mice [2]; 4 mg/kg acute, twenty minutes after dosage", "result": "significant increase"}, {"measurement": "Number of head dips", "setting": "mice [2]; 4 mg/kg oral, 20 min", "result": "20.25 ± 1.42"}, {"measurement": "Number of rearings", "setting": "mice [2]; 4 mg/kg oral, 20 min", "result": "29.54 ± 2.09"}, {"measurement": "Time spent head-dipping", "setting": "mice [2]; 4 mg/kg oral, 20 min", "result": "23.35 ± 1.28"}, {"measurement": "Number of head dips", "setting": "mice [2]; 4 mg/kg oral, 60 min", "result": "16.95 ± 1.33"}, {"measurement": "Number of rearings", "setting": "mice [2]; 4 mg/kg oral, 60 min", "result": "27.56 ± 2.79"}, {"measurement": "Time spent head-dipping", "setting": "mice [2]; 4 mg/kg oral, 60 min", "result": "17.56 ± 1.20"}, {"measurement": "Number of head dips", "setting": "mice [2]; 8 mg/kg oral, 20 min", "result": "18.46 ± 3.65"}, {"measurement": "Number of rearings", "setting": "mice [2]; 8 mg/kg oral, 20 min", "result": "25.26 ± 2.74"}, {"measurement": "Time spent head-dipping", "setting": "mice [2]; 8 mg/kg oral, 20 min", "result": "19.55 ± 4.23"}, {"measurement": "Number of head dips", "setting": "mice [2]; 8 mg/kg oral, 60 min", "result": "15.72 ± 1.86"}, {"measurement": "Number of rearings", "setting": "mice [2]; 8 mg/kg oral, 60 min", "result": "23.75 ± 3.18"}, {"measurement": "Time spent head-dipping", "setting": "mice [2]; 8 mg/kg oral, 60 min", "result": "15.06 ± 1.98"}, {"measurement": "sedative effects (decrease in head-dips, time head-dipping, rearings)", "setting": "mice [2]; mouse, in vivo", "result": "lack of sedative effects"}, {"measurement": "fold difference in binding affinity", "setting": "[8]; Compound 1 vs Compound 6 (K1)", "result": 260, "unit": "fold"}, {"measurement": "IC50", "setting": "[8]; read-out: Inhibition of 3H-Flunitrazepam IC50, 1 nM [3H]-flunitrazepam, rat whole brain synaptosomal membrane", "result": 1.5, "unit": "nM"}, {"measurement": "% of entries into open arms", "setting": "mice [3]; 1 mg/kg oral, 20 min", "result": "18.39 ± 3.14", "unit": "%"}, {"measurement": "% of time spent in open arms", "setting": "mice [3]; 1 mg/kg oral, 20 min", "result": "14.28 ± 2.36", "unit": "%"}, {"measurement": "% of entries into open arms", "setting": "mice [3]; 1 mg/kg oral, 60 min", "result": "18.51 ± 3.34", "unit": "%"}, {"measurement": "% of time spent in open arms", "setting": "mice [3]; 1 mg/kg oral, 60 min", "result": "15.80 ± 3.29", "unit": "%"}, {"measurement": "% of entries into open arms", "setting": "mice [3]; 2 mg/kg oral, 20 min", "result": "18.30 ± 2.78", "unit": "%"}, {"measurement": "% of time spent in open arms", "setting": "mice [3]; 2 mg/kg oral, 20 min", "result": "15.74 ± 3.00", "unit": "%"}, {"measurement": "% of entries into open arms", "setting": "mice [3]; 2 mg/kg oral, 60 min", "result": "16.91 ± 2.49", "unit": "%"}, {"measurement": "% of time spent in open arms", "setting": "mice [3]; 2 mg/kg oral, 60 min", "result": "16.84 ± 1.99", "unit": "%"}, {"measurement": "anxiolysis compared to either dosage of diazepam", "setting": "mice [3]; 4.0 mg/kg", "result": "more anxiolysis"}, {"measurement": "% of entries into open arms", "setting": "mice [3]; 4 mg/kg oral, 20 min", "result": "32.28 ± 2.91", "unit": "%"}, {"measurement": "% of time spent in open arms", "setting": "mice [3]; 4 mg/kg oral, 20 min", "result": "33.55 ± 2.09", "unit": "%"}, {"measurement": "% of entries into open arms", "setting": "mice [3]; 4 mg/kg oral, 60 min", "result": "19.90 ± 1.63", "unit": "%"}, {"measurement": "% of time spent in open arms", "setting": "mice [3]; 4 mg/kg oral, 60 min", "result": "15.69 ± 2.09", "unit": "%"}, {"measurement": "% of entries into open arms", "setting": "mice [3]; 8 mg/kg oral, 20 min", "result": "28.90 ± 2.23", "unit": "%"}, {"measurement": "% of time spent in open arms", "setting": "mice [3]; 8 mg/kg oral, 20 min", "result": "25.62 ± 1.73", "unit": "%"}, {"measurement": "% of entries into open arms", "setting": "mice [3]; 8 mg/kg oral, 60 min", "result": "18.67 ± 2.24", "unit": "%"}, {"measurement": "% of time spent in open arms", "setting": "mice [3]; 8 mg/kg oral, 60 min", "result": "16.76 ± 2.19", "unit": "%"}, {"measurement": "time spent in open arms and entries made into open arms vs control", "setting": "mice [3]; 4.0 and 8.0 mg/kg, twenty minutes after dosage", "result": "significant increase"}, {"measurement": "Ki", "setting": "[9]", "result": 1.1, "unit": "nM"}, {"measurement": "ability to grasp the wire", "setting": "mice [5]; K36 dosage regimen 1.0-8.0 mg/kg", "result": "remained unchanged"}, {"measurement": "GABA ratio", "setting": "[7]; IC50 without GABA / IC50 with 10 μM GABA, 1 nM [3H]-Ro15-1788", "result": 1.20}, {"measurement": "Ki", "setting": "BZD-S", "result": 1.1, "unit": "nM"}]}
